Reference: patent publication US9695155B2, “Herbicidal substituted pyrimidinyloxy benzene compounds” (E. I. DU PONT DE NEMOURS AND COMPANY, priority 2013, dated 2017)

Columns and labels:
wild poinsettia = test: Test E postemergence; format: in vivo, Euphorbia heterophylla
Excerpt: (§1) Seeds of plant species selected from corn (Zea mays), soybean (Glycine max), velvetleaf (Abutilon theophrasti), lambsquarters (Chenopodium album), wild poinsettia (Euphorbia heterophylla), palmer pigweed (Amaranthus palmeri), waterhemp (common waterhemp, Amaranthus rudis), surinam grass (Brachiaria decumbens), large (Lg) crabgrass (Digitaria sanguinalis), Brazilian crabgrass (Digitaria horizontalis), fall panicum (Panicum dichotomiflorum), giant foxtail (Setaria faberii), green foxtail (Setaria viridis), goosegrass (Eleusine indica), johnsongrass (Sorghum halepense), ragweed (common ragweed, Ambrosia elatior), barnyardgrass (Echinochloa crus-galli), sandbur (southern sandbur, Cenchrus echinatus), arrowleaf sida (Sida rhombifolia), Italian ryegrass (Lolium multiflorum), dayflower (Virginia (VA) dayflower, Commelina virginica), field bindweed (Convolvulus arvensis), morningglory (Ipomoea coccinea), nightshade (eastern black nightshade, Solanum ptycanthum), kochia (Kochia scoparia), yellow nutsedge (Cyperus esculentus), cocklebur (common cocklebur, Xanthium strumarium), smartweed (ladysthumb smartweed, and hairy beggarticks (Bidens pilosa), were planted into a silt loam soil and treated preemergence with test chemicals formulated in a non-phytotoxic solvent mixture which included a surfactant.
(§2) At the same time, plants from these crop and weed species and also horseweed (Canada horseweed, Conyza canadensis), waterhemp_RES1, (ALS & Triazine resistant common waterhemp, Amaranthus rudis), and waterhemp_RES2, (ALS & HPPD resistant common waterhemp, Amaranthus rudis) were planted in pots containing Redi-Earth® planting medium (Scotts Company, 14111 Scottslawn Road, Marysville, Ohio 43041) comprising spaghnum peat moss, vermiculite, wetting agent and starter nutrients were treated with postemergence applications of test chemicals formulated in the same manner. Plants ranged in height from 2 to 18 cm for postemergence treatments (1- to 4-leaf stage). Treated plants and controls were maintained in a greenhouse for 14 to 21 days, after which time all species were compared to controls and visually evaluated. Plant response ratings, summarized in Table E, are based on a scale of 0 to 100 where 0 is no effect and 100 is complete control. A dash (-) response means no test result.

dayflower = test: Test E postemergence; format: in vivo, Commelina virginica
Excerpt: as §1, §2

field bindweed = test: Test E postemergence; format: in vivo, Convolvulus arvensis
Excerpt: as §1, §2

corn = test: Test C preemergence; format: in vivo, Zea mays; settings: Zea mays, pre-emergence
Excerpt: Seeds of plant species selected from blackgrass (Alopecurus myosuroides), Italian ryegrass (Lolium multiflorum), wheat, winter (winter wheat, Triticum aestivum), galium (catchweed bedstraw, Galium aparine), corn (Zea mays), large (Lg) crabgrass (Digitaria sanguinalis), giant foxtail (Setaria faberii), johnsongrass (Sorghum halepense), lambsquarters (Chenopodium album), morningglory (Ipomoea coccinea), yellow nutsedge (Cyperus esculentus), pigweed (Amaranthus retroflexus), ragweed (common ragweed, Ambrosia elatior), soybean (Glycine max), barnyardgrass (Echinochloa crus-galli), oilseed rape (Brassica napus), waterhemp (common waterhemp, Amaranthus rudis), kochia (Kochia scoparia), wild oat (Avena fatua), surinam grass (Brachiaria decumbens), foxtail, green (green foxtail, Setaria viridis), goosegrass (Eleusine indica), bromegrass, downy (downy bromegrass, Bromus tectorum), nightshade (eastern black nightshade, Solanum ptycanthum), cocklebur (common cocklebur, Xanthium strumarium), cupgrass, woolly (woolly cupgrass, Eriochloa villosa), bermudagrass (Cynodon dactylon), sunflower, (common oilseed sunflower, Helianthus annuus), Russian thistle (Salsola kali), and velvetleaf (Abutilon theophrasti) were planted into a blend of loam soil and sand and treated preemergence with test chemicals formulated in a non-phytotoxic solvent mixture which included a surfactant.
At the same time, plants selected from these crop and weed species and also barley, winter (winter barley, Hordeum vulgare), windgrass (Apera spica-venti), chickweed (common chickweed, Stellaria media), deadnettle (henbit deadnettle, Lamium amplexicaule), and canarygrass (littleseed canarygrass, Phalaris minor) were planted in pots containing Redi-Earth® planting medium (Scotts Company, 14111 Scottslawn Road, Marysville, Ohio 43041) comprising spaghnum peat moss, vermiculite, wetting agent and starter nutrients and treated with postemergence applications of test chemicals formulated in the same manner. Plants ranged in height from 2 to 18 cm (1- to 4-leaf stage) for postemergence treatments. Treated plants and controls were maintained in a greenhouse for 13 to 15 days, after which time all species were compared to controls and visually evaluated. Plant response ratings, summarized in Table C, are based on a scale of 0 to 100 where 0 is no effect and 100 is complete control. A dash (-) response means no test result.

morningglory = test: Test C preemergence; format: in vivo, Ipomoea coccinea; settings: Ipomoea, pre-emergence
Summary of the method: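 Sown in loam/sand → sprayed pre-emergence; or grown to 1–4 leaves in peat mix → sprayed post-emergence. Same solvent/surfactant formulation both ways. Greenhouse 13–15 d. Score 0–100 visual.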

[1] = Euphorbia heterophylla, post-emergence, Postemergence, 31 g ai/ha, scale 0 to 100, read-out: Plant response rating, Poinsettia, Wild
[2] = Euphorbia heterophylla, post-emergence, Postemergence, 62 g ai/ha, scale 0 to 100, read-out: Plant response rating, Poinsettia, Wild
[3] = Euphorbia heterophylla, post-emergence, Postemergence, 125 g ai/ha, scale 0 to 100, read-out: Plant response rating, Poinsettia, Wild
[4] = Euphorbia heterophylla, post-emergence, postemergence, 16 g ai/ha, scale 0 to 100, 0 no effect, 100 complete control, read-out: Plant response rating, Poinsettia, Wild
[5] = Commelina virginica, post-emergence, Postemergence, 31 g ai/ha, scale 0 to 100, read-out: Plant response rating, Dayflower, VA
[6] = Commelina virginica, post-emergence, Postemergence, 62 g ai/ha, scale 0 to 100, read-out: Plant response rating, Dayflower, VA
[7] = Commelina virginica, post-emergence, Postemergence, 125 g ai/ha, scale 0 to 100, read-out: Plant response rating, Dayflower, VA
[8] = Commelina virginica, post-emergence, postemergence, 16 g ai/ha, scale 0 to 100, 0 no effect, 100 complete control, read-out: Plant response rating, Dayflower, VA
[9] = Convolvulus arvensis, post-emergence, Postemergence, 31 g ai/ha, scale 0 to 100, read-out: Plant response rating, Field Bindweed
[10] = Convolvulus arvensis, post-emergence, Postemergence, 62 g ai/ha, scale 0 to 100, read-out: Plant response rating, Field Bindweed
[11] = Convolvulus arvensis, post-emergence, Postemergence, 125 g ai/ha, scale 0 to 100, read-out: Plant response rating, Field Bindweed
[12] = Convolvulus arvensis, post-emergence, postemergence, 16 g ai/ha, scale 0 to 100, 0 no effect, 100 complete control, read-out: Plant response rating, Field Bindweed
[13] = Postemergence, 31 g ai/ha, scale 0 to 100
[14] = Postemergence, 62 g ai/ha, scale 0 to 100
[15] = Postemergence, 125 g ai/ha, scale 0 to 100
[16] = postemergence, 16 g ai/ha, scale 0 to 100, 0 no effect, 100 complete control
[17] = postemergence, 8 g ai/ha, scale 0 to 100, 0 no effect, 100 complete control

Compound	pest or weed control at 31 g/ha (wild poinsettia; [1]) [%]	pest or weed control at 62 g/ha (wild poinsettia; [2]) [%]	pest or weed control at 125 g/ha (wild poinsettia; [3]) [%]	pest or weed control at 16 g/ha (wild poinsettia; [4]) [%]	pest or weed control at 31 g/ha (dayflower; [5]) [%]	pest or weed control at 62 g/ha (dayflower; [6]) [%]	pest or weed control at 125 g/ha (dayflower; [7]) [%]	pest or weed control at 16 g/ha (dayflower; [8]) [%]	Plant response rating, Poinsettia, Wild (wild poinsettia; [13])	Plant response rating, Poinsettia, Wild (wild poinsettia; [14])	Plant response rating, Poinsettia, Wild (wild poinsettia; [15])	Plant response rating, Poinsettia, Wild (wild poinsettia; [16])	Plant response rating, Dayflower, VA (dayflower; [13])	Plant response rating, Dayflower, VA (dayflower; [14])	Plant response rating, Dayflower, VA (dayflower; [15])	Plant response rating, Dayflower, VA (dayflower; [16])	Plant response rating, Field Bindweed (field bindweed; [13])	Plant response rating, Field Bindweed (field bindweed; [14])	Plant response rating, Field Bindweed (field bindweed; [15])	Plant response rating, Field Bindweed (field bindweed; [16])	other results
Clc1cnn(-c2ccccc2Oc2ncc(Br)cn2)c1 [Compound 5, 5-bromo-2-[2-(4-chloro-1H-pyrazol-1-yl)phenoxy]pyrimidine]	20	30	35	10	10	10	40	0	–	–	–	–	–	–	–	–	–	–	–	–	pest or weed control at 250 g/ha (wild poinsettia; Euphorbia heterophylla, post-emergence, Postemergence, 250 g ai/ha, scale 0 to 100, read-out: Plant response rating, Poinsettia, Wild): 50%; pest or weed control at 250 g/ha (dayflower; Commelina virginica, post-emergence, Postemergence, 250 g ai/ha, scale 0 to 100, read-out: Plant response rating, Dayflower, VA): 75%; pest or weed control at 31 g/ha (field bindweed; [9]): 20%; pest or weed control at 62 g/ha (field bindweed; [10]): 30%; pest or weed control at 125 g/ha (field bindweed; [11]): 30%; pest or weed control at 250 g/ha (field bindweed; Convolvulus arvensis, post-emergence, Postemergence, 250 g ai/ha, scale 0 to 100, read-out: Plant response rating, Field Bindweed): 40%; pest or weed control at 16 g/ha (field bindweed; [12]): 10%
N#Cc1cccc(Oc2ncc(Cl)cn2)c1-n1cc(OCC(F)(F)F)cn1 [Compound 274, 3-[(5-chloro-2-pyrimidinyl)oxy]-2-[4-(2,2,2-trifluoroethoxy)-1H-pyrazol-1-yl]benzonitrile]	70	70	70	65	20	40	70	10	–	–	–	–	–	–	–	–	–	–	–	–	plant injury at 16 g/ha (corn; 16 g ai/ha, preemergence, scale 0 to 100 (0 no effect, 100 complete control), read-out: Corn plant response rating): 5%; plant injury at 125 g/ha (corn; 125 g ai/ha, preemergence, scale 0 (no effect) to 100 (complete control), read-out: Corn plant response rating): 80%; Corn plant response rating (crop injury, 0 = no effect, 100 = complete kill) at 62 g/ha (corn; Preemergence, 62 g ai/ha, scale 0 to 100, 0 no effect, 100 complete control): 85%; pest or weed control at 16 g/ha (morningglory; 16 g ai/ha, preemergence, scale 0 to 100 (0 no effect, 100 complete control), read-out: Morningglory plant response rating): 35%; pest or weed control at 125 g/ha (morningglory; 125 g ai/ha, preemergence, scale 0 (no effect) to 100 (complete control), read-out: Morningglory plant response rating): 100%; pest or weed control at 62 g/ha (morningglory; Preemergence, 62 g ai/ha, scale 0 to 100, 0 no effect, 100 complete control, read-out: Plant response rating, Morningglory): 100%; pest or weed control at 8 g/ha (wild poinsettia; Euphorbia heterophylla, post-emergence, postemergence, 8 g ai/ha, scale 0 to 100, 0 no effect, 100 complete control, read-out: Plant response rating, Poinsettia, Wild): 50%; pest or weed control at 8 g/ha (dayflower; Commelina virginica, post-emergence, postemergence, 8 g ai/ha, scale 0 to 100, 0 no effect, 100 complete control, read-out: Plant response rating, Dayflower, VA): 5%; pest or weed control at 31 g/ha (field bindweed; [9]): 50%; pest or weed control at 62 g/ha (field bindweed; [10]): 70%; pest or weed control at 125 g/ha (field bindweed; [11]): 75%; pest or weed control at 8 g/ha (field bindweed; Convolvulus arvensis, post-emergence, postemergence, 8 g ai/ha, scale 0 to 100, 0 no effect, 100 complete control, read-out: Plant response rating, Field Bindweed): 60%; pest or weed control at 16 g/ha (field bindweed; [12]): 50%
Clc1cnc(Oc2cccc(Cl)c2-n2cc(I)cn2)nc1 [Compound 181]	–	–	–	–	–	–	–	–	50	50	60	40	30	40	60	20	40	40	50	25	–
FC(F)(F)c1cnn(-c2c(Br)cccc2Oc2ncc(Cl)cn2)c1 [Compound 191]	–	–	–	–	–	–	–	–	50	50	60	40	5	10	10	0	50	40	50	40	Plant response rating, Poinsettia, Wild (wild poinsettia; [17]): 20; Plant response rating, Dayflower, VA (dayflower; [17]): 0; Plant response rating, Field Bindweed (field bindweed; [17]): 20
Clc1cnc(Oc2ccccc2-n2cc(Br)nn2)nc1 [Compound 223]	–	–	–	–	–	–	–	–	40	50	60	30	25	55	65	0	35	50	50	20	Plant response rating, Poinsettia, Wild (wild poinsettia; [17]): 30; Plant response rating, Dayflower, VA (dayflower; [17]): 0; Plant response rating, Field Bindweed (field bindweed; [17]): 20
